In publication PMC6781499 (Pharmaceutics, 2019):
Like-named read-outs stand apart in the source and are kept apart here.

Legend:
NOX1 = system: NOX1; set-up: method as in PMID 26975635; settings: in vitro; cited from earlier work
NOX2 = system: NOX2; set-up: method as in PMID 26975635; settings: in vitro; cited from earlier work
[1] = Stability of Ewha-18278 in rat plasma (short-term, long-term, freeze-thaw, post-preparative); assay type: in vitro ADME; settings: n = 3; for Stability 37 °C, 6 h / Stability Freeze-thaw / Stability RT, 6 h / Stability −20 °C, 4-W / Stability −70 °C, 4-W: rat plasma
[2] = system: bone marrow-derived macrophages (BMMs); set-up: method as in PMID 26975635; settings: in vitro; cited from earlier work
[3] = Solubility (aqueous / in co-solvent formulation); assay type: physicochemical
[4] = system: ovariectomized (OVX) mice; set-up: method as in PMID 26975635; settings: orally 10–20 mg/kg daily for 4 weeks; cited from earlier work
NOX4 = system: NOX4; set-up: method as in PMID 26975635; settings: in vitro; cited from earlier work
[5] = Pharmacokinetics of Ewha-18278 after IV and oral administration to rats (non-compartmental analysis, HPLC/UV plasma assay); assay type: in vivo, Sprague-Dawley rats; settings: for F (absolute BA): PO 20 mg/kg vs IV 2 mg/kg
Description: The plasma sample (50 µL) with IS was deproteinized with twice the volume of acetonitrile (ACN). All HPLC analyses were performed on an Agilent 1100 series system (Palo Alto, CA, USA). Capcell-pak C18 MG120 column (3.0 mm × 250 mm, 5 µm, Shiseido, Tokyo, Japan) was the analytical column used. All the prepared samples were eluted with acetonitrile and water (65:35, v/v) containing 0.1% trifluoroacetic acid (TFA) at a flow rate of 0.5 mL/min. The sample reservoir and column oven were maintained at 4 °C and 40 °C, respectively. UV detection was performed at 284 nm and the injection volume was 30 µL.
All the animal procedures were approved by the Institutional Animal Care and Use Committee of Ewha Womans University (IACUC) (No. 2010-2-5, approved on 19 February 2010), Seoul, Korea. Seven-week-old male Sprague-Dawley rats (200–240 g) were used for the PK experiments.
The DMSO-based formulations were comprised of 10% DMSO and 90% saline-based solution (25% Cremophor® EL, 5% polyethylene glycol 400, 0.5% Tween® and 69.5% saline, v/v/v/v). The diazepam injection-based formulation applicable to humans was composed of 40% propylene glycol, 10% dehydrated ethanol, and 50% water (v/v/v). […] These concentrations were utilized to examine the effect of concentration on the PK parameters of the compound.
The rats were divided into five groups on the day of the drug administration. Two groups (n = 6) were administered the DMSO-based formulation: IV injection of 2 mg/kg and oral administration of 20 mg/kg. Three groups (n = 5–6) were treated with the diazepam injection-based formulation: IV injection of 2 mg/kg and oral administration of 20 mg/kg in two different concentrations (1 mg/mL and 2 mg/mL). The common carotid artery was catheterized for blood sampling. Blood sampling (0.2 mL) was conducted at 0, 0.033, 0.083, 0.25, 0.5, 1, 2, 4, 6, 10, and 24 h for the IV group and 0, 0.083, 0.25, 0.5, 1, 2, 4, 6, 10, 24, and 34 h for PO groups. Plasma samples mixed with IS (Ewha-18212) were analyzed by the HPLC system.

[6] = IV 2 mg/kg, diazepam injection-based formulation (1 mg/mL)
[7] = male, Sprague-Dawley, rat, plasma, iv, 2 mg/kg, IV 2 mg/kg, DMSO formulation (1 mg/mL)
[8] = male, Sprague-Dawley, rat, plasma, po, 20 mg/kg, PO 20 mg/kg, DMSO formulation (2 mg/mL)
[9] = male, Sprague-Dawley, rat, plasma, po, 20 mg/kg, PO 20 mg/kg, diazepam injection-based formulation (2 mg/mL)

## CCCc1c(-c2ccccc2)nn(-c2ccccn2)c1O [Ewha-18278]
NOX1
  Effect on NOX1 activity: directly interfering with the activity
NOX2
  Effect on NOX2 activity: directly interfering with the activity
[1]; high QC concentration
  Stability Post-prep.: 103%
  Stability 37 °C, 6 h: 87.5%
  Stability Freeze-thaw: 86.0%
  Stability RT, 6 h: 93.4%
  Stability −20 °C, 4-W: 90.4%
  Stability −70 °C, 4-W: 97.5%
[1]; low QC concentration
  Stability Post-prep.: 103%
  Stability 37 °C, 6 h: 89.0%
  Stability Freeze-thaw: 90.4%
  Stability −20 °C, 4-W: 99.4%
  Stability −70 °C, 4-W: 100%
[1]; low QC concentration, vs freshly prepared QC samples
  Stability RT, 6 h: 94.5%
[2]
  Effect on responses of BMMs to RANKL: inhibited
[3]; mixture of propylene glycol, dehydrated ethanol, and water
  Dissolution in co-solvents: completely dissolved
[3]; salt formation
  Solubility of the hydrochloride salt relative to free form #2: strongly enhanced the solubility
[3]; water
  Aqueous solubility: highly insoluble in water
[4]
  Bone strength / cortical bone thickness: induced bone strength by increasing cortical bone thickness
NOX4
  Effect on NOX4 activity: directly interfering with the activity
[5]; IV 2 mg/kg, DMSO formulation (1 mg/mL)
  Clt: 0.216 ± 0.084 L/h
[5]; [6]
  Clt: 0.250 ± 0.072 L/h
  Vd: 1.52 ± 1.17 L
[5]; DMSO formulation (2 mg/mL)
  F (absolute BA): 62.4%
[5]; diazepam injection-based formulation (1 mg/mL)
  F (absolute BA): 67.2%
[5]; diazepam injection-based formulation (2 mg/mL)
  F (absolute BA): 43.0%
[5]; PO 20 mg/kg, DMSO formulation (2 mg/mL)
  Clt/F: 0.327 ± 0.164 L/h
[5]; PO 20 mg/kg, DMSO formulation (2 mg/mL), 20 mg/kg
  AUCinf: 19400 ± 8690 ng·h/mL
[5]; PO 20 mg/kg, DMSO-based and diazepam injection-based formulations
  BA (absolute), all groups / both formulations: more than 40%
[5]; PO 20 mg/kg, diazepam injection-based formulation (1 mg/mL)
  Clt/F: 0.531 ± 0.370 L/h
[5]; PO 20 mg/kg, diazepam injection-based formulation (2 mg/mL)
  Clt/F: 0.726 ± 0.553 L/h
[5]; PO 20 mg/kg, diazepam injection-based formulation, 2 mg/mL vs 1 mg/mL
  Decrease of PK parameters (AUCinf, t1/2, absolute BA) in the higher concentration group: ~35%
[5]; PO 20 mg/kg, diazepam injection-based formulation, high concentration (2 mg/mL)
  Time of second peak in plasma concentration-time profile: 10 h
[5]; PO 20 mg/kg, diazepam injection-based formulation, low concentration (1 mg/mL)
  Time of second peak in plasma concentration-time profile: 6 h
[5]; PO, diazepam injection-based formulation, 1 mg/mL compared to 2 mg/mL
  Increase of AUCinf at low vs high concentration: 1.6 fold
[5]; male, Sprague-Dawley, rat, plasma, IV 2 mg/kg, DMSO formulation (1 mg/mL)
  C0: 7240 ± 2450 ng/mL
[5]; male, Sprague-Dawley, rat, plasma, IV 2 mg/kg, DMSO formulation (1 mg/mL), read-out: Vd
  Vd: 0.785 ± 0.154 L
[5]; [7]
  AUC(0-inf): 2860 ± 1090 ng·h/mL
  half-life: 3.07 ± 2.01 h
[5]; [8]
  AUC(0-inf): 17900 ng·h/mL
  Cmax: 4680 ± 2110 ng/mL
  Tmax: 0.249 ± 0.166 h
  Vd/F: 6.06 ± 2.32 L
  half-life: 14.2 ± 4.76 h
[5]; male, Sprague-Dawley, rat, plasma, po, 20 mg/kg, PO 20 mg/kg, diazepam injection-based formulation (1 mg/mL)
  Vd/F: 9.72 ± 5.17 L
[5]; [9]
  AUC(0-inf): 9250 ± 4420 ng·h/mL
  Cmax: 6240 ± 2020 ng/mL
  Tmax: 0.083 h
  Vd/F: 7.9 ± 3.01 L
  half-life: 8.96 ± 2.92 h
